Test results: patent US8420884B2, “Models of malignant brain cancer, and therapeutic siRNAs against oncogenic signaling pathways, and methods and kits for uses therefor” (Tufts Medical Center Inc., priority 2008, dated 2013)
“Also recorded” adds a separate entry of the source.

Assays:
GBM culture 102 = assay: Cytotoxicity of NXD30001 and 17-AAG in GBM cultures; format: cell-based, mouse; conditions: GBM 102; mean of three independent experiments ± standard deviation
Protocol: (§1) Primary cultures of tumors or newborn mice astrocytes were established as follows: tumors or P0 neonate cortices were excised and minced in 0.25% trypsin (wt/vol) 1 mM EDTA and allowed to disaggregate for 15 min at 37° C. The resulting cell suspension was then strained through a 70-μm cell strainer (Falcon). The single suspension of cells was washed in PBS twice and plated on 0.2% gelatin-coated tissue culture plates. Cells were fed every 24 hr with fresh medium that consisted of DMEM supplemented with 10% heat-inactivated FBS and antibiotics. The primary cultures of astrocytes were routinely stained for markers of astrocytic lineages by immunofluorescence.
(§2) Cytotoxicity of NXD30001 was assessed in GMB cell proliferating cultures obtained from clinical mouse subjects and was compared to that of 17-(Allylamino)-17-demethoxygeldanamycin (17-AAG), an ansamycin antibiotic which binds to HSP90. Data obtained was analyzed as half maximum inhibitory concentration (1050) values (Table 3).

GBM culture 103 = assay: as above; format: cell-based, mouse; conditions: GBM 103; mean of three independent experiments ± standard deviation
Protocol: as §1, §2

GBM culture 2000 = assay: as above; format: cell-based, mouse; conditions: GBM 2000; mean of three independent experiments ± standard deviation
Protocol: as §1, §2

GBM culture 2227 = assay: as above; format: cell-based, mouse; conditions: GBM 2227; mean of three independent experiments ± standard deviation
Protocol: as §1, §2

GBM culture 2231 = assay: as above; format: cell-based, mouse; conditions: GBM 2231; mean of three independent experiments ± standard deviation
Protocol: as §1, §2

GBM culture 2414 = assay: as above; format: cell-based, mouse; conditions: GBM 2414; mean of three independent experiments ± standard deviation
Protocol: as §1, §2

GBM culture 2415 = assay: as above; format: cell-based, mouse; conditions: GBM 2415; mean of three independent experiments ± standard deviation
Protocol: as §1, §2

GBM culture 2734 = assay: as above; format: cell-based, mouse; conditions: GBM 2734; mean of three independent experiments ± standard deviation
Protocol: as §1, §2

GBM culture 41 = assay: as above; format: cell-based, mouse; conditions: GBM 41; mean of three independent experiments ± standard deviation
Protocol: as §1, §2

GBM culture 42 = assay: as above; format: cell-based, mouse; conditions: GBM 42; mean of three independent experiments ± standard deviation
Protocol: as §1, §2

GBM culture 46 = assay: as above; format: cell-based, mouse; conditions: GBM 46; mean of three independent experiments ± standard deviation
Protocol: as §1, §2

GBM culture 69 = assay: as above; format: cell-based, mouse; conditions: GBM 69; mean of three independent experiments ± standard deviation
Protocol: as §1, §2

GBM-1 cells = assay: as above; format: cell-based, mouse; conditions: mean of three independent experiments ± standard deviation
Protocol: as §1, §2

GBM-2 cells = assay: as above; format: cell-based, mouse; conditions: mean of three independent experiments ± standard deviation
Protocol: as §1, §2

[1] = system: GBM tumors in conditional EGFR animals; conditions: animal number 2148; 80 days
Protocol: Bioluminescence was measured noninvasively using the IVIS 200 imaging system (Xenogen). For live imaging, the surface areas of focus for imaging were depilated using commercial depilatory creams. Images were taken 10 min after IP injection of luciferin (225 mg/kg, Xenogen) to allow sufficient time for distribution of luciferin, with a 60 second photon acquisition during which mice were sedated via continuous inhalation of 3% isoflurane. For organ imaging post luciferin injection, animals were incubated for 10 min and perfused transcardially with saline. Bioluminescence imaging was then performed on individually dissected organs. Signal intensity was quantified for defined regions of interest as photon count rate per unit body area per unit solid angle subtended by the detector (units of photons/s/cm^2/steradian). All image analyses and bioluminescent quantification were performed using Living Image software v. 2.50 (Xenogen).
Conditional EGFR animals were examined using bioluminescence imaging at different periods of time after tumor induction with Ad-Cre-recombinase by the methods above.

[2] = system: recurrent and newly diagnosed GBMs; conditions: unselected patients; phase II; cited from earlier work
GBMs = conditions: GBM patients; cited from earlier work

Structure (SMILES): C=CCNC1=C2C[C@@H](C)C[C@H](OC)[C@H](O)[C@@H](C)/C=C(\C)[C@H](OC(N)=O)[C@@H](OC)/C=C\C=C(/C)C(=O)NC(=CC1=O)C2=O [17-AAG, 17-(Allylamino)-17-demethoxygeldanamycin]
- IC50 (GBM culture 102): 626.2 ± 6 nM
- IC50 (GBM culture 103): 794 ± 28.7 nM
- IC50 (GBM culture 2000): 345 ± 75.5 nM
- IC50 (GBM culture 2227): 712 nM
- IC50 (GBM culture 2231): 737 ± 72 nM
- IC50 (GBM culture 2414): 205 ± 13.1 nM
- IC50 (GBM culture 2415): 329 ± 50.1 nM
- IC50 (GBM culture 2734): 381 nM
- IC50 (GBM culture 41): 100 ± 5 nM
- IC50 (GBM culture 42): 166 ± 24.9 nM
- IC50 (GBM culture 46): 91.9 ± 1.4 nM
- IC50 (GBM culture 69): 91 nM
- IC50 (GBM-1 cells): 208 ± 9.6 nM
- IC50 (GBM-2 cells): 1100 ± 119 nM

Structure (SMILES): C#Cc1cccc(Nc2ncnc3cc(OCCOC)c(OCCOC)cc23)c1 [Tarceva, erlotinib]
- outcome by bioluminescence imaging [1]: essentially cured by treatment; also recorded: essentially been cured of cancer
- overall efficacy [2]: minimal when compared with historical data

Structure (SMILES): COc1cc2ncnc(Nc3ccc(F)c(Cl)c3)c2cc1OCCCN1CCOCC1 [gefitinib]
- overall efficacy [2]: minimal when compared with historical data

Structure (SMILES): CO[C@H]1C[C@@H]2CC[C@@H](C)[C@@](O)(O2)C(=O)C(=O)N2CCCC[C@H]2C(=O)O[C@H]([C@H](C)C[C@@H]2CC[C@@H](OC(=O)C(C)(CO)CO)[C@H](OC)C2)CC(=O)[C@H](C)/C=C(\C)[C@@H](O)[C@@H](OC)C(=O)[C@H](C)C[C@H](C)/C=C/C=C/C=C/1C [temsirolimus]
- Phase II results of two clinical trials (GBMs): negative, with no improvement in response rates, progression-free survival or overall survival
